Measured values reported in US20080009418A1, “Selective Inhibitors” (Alchemia LTD., priority 2004, published 2008).

How the values were obtained:
[1] = biological target: T1, Human δ-opioid (DOP) (Homo sapiens, UniProt P41143); assay: Radioligand binding, human δ-opioid (DOP) membranes, FlashPlate, [3H]-Bremazocine; conditions: compound at 10 μM; [3H]-Bremazocine, FlashPlate
T1 construct: purchased Perkin Elmer Biosignal
Method in brief: (§1)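 Cloned human receptor membranes were coated onto FlashPlate wells and incubated with radioligand and compound (added from a 0.5 mM DMSO daughter plate) for 1 hour at room temperature in the dark. Scintillation counting gave percent inhibition, with DMSO defining total and reference ligand defining non-specific binding.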

[2] = biological target: T2, Human κ-Opioid (KOP) (Homo sapiens, UniProt P41145); assay: Radioligand binding, human κ-opioid (KOP) membranes, filtration, [3H]-Diprenorphine; conditions: compound at 10 μM; [3H]-Diprenorphine, filtration
T2 construct: purchased Perkin Elmer Biosignal
Method in brief: (§2)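 Percent inhibition of radioligand binding measured on recombinant human membranes: NK1 with [125I]-Substance P, KOP with [3H]-Diprenorphine. Incubation 1 h at room temperature, then harvest onto 0.3% PEI-soaked filters, cold Tris-HCl pH 7.4 washes and scintillation counting; non-specific binding from reference ligand wells.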

[3] = biological target: T3, Human Melanocortin (MC3) (Homo sapiens, UniProt P41968); assay: Radioligand binding, human melanocortin MC3 membranes, FlashPlate, [125I]-NDP-αMSH; conditions: compound at 10 μM; [125I]-NDP-αMSH, FlashPlate
T3 construct: purchased Perkin Elmer Biosignal
Method in brief: as §1

[4] = biological target: T4, Human Melanocortin (MC4) (Homo sapiens, UniProt P32245); assay: Radioligand binding, human melanocortin MC4 membranes, FlashPlate, [125I]-NDP-αMSH; conditions: compound at 10 μM; [125I]-NDP-αMSH, FlashPlate
T4 construct: purchased Perkin Elmer Biosignal
Method in brief: as §1

[5] = biological target: T5, Human melanocortin (MC5) (Homo sapiens, UniProt P33032); assay: Radioligand binding, human melanocortin MC5 membranes, FlashPlate, [125I]-NDP-αMSH; conditions: compound at 10 μM; [125I]-NDP-αMSH, FlashPlate
T5 construct: purchased Perkin Elmer Biosignal
Method in brief: as §1

[6] = biological target: T6, Human melanin-concentrating hormone (MCH1) (Homo sapiens, UniProt Q99705); assay: Radioligand binding, human melanin-concentrating hormone MCH1 membranes, FlashPlate, [125I]-S36057; conditions: compound at 10 μM; [125I]-S36057, FlashPlate
T6 construct: purchased Perkin Elmer Biosignal
Method in brief: as §1

[7] = biological target: T7, Human μ-opioid (MOP) (Homo sapiens, UniProt P35372); assay: Radioligand binding, human μ-opioid (MOP) membranes, FlashPlate, [3H]-Naloxone; conditions: compound at 10 μM; [3H]-Naloxone, FlashPlate
T7 construct: purchased Perkin Elmer Biosignal
Method in brief: as §1

[8] = biological target: T8, Human neurokinin (NK1) (Homo sapiens, UniProt P25103); assay: Radioligand binding, human neurokinin NK1 membranes, filtration, [125I]-Substance P; conditions: compound at 10 μM; [125I]-Substance P, filtration
T8 construct: purchased Perkin Elmer Biosignal
Method in brief: as §2

[9] = biological target: T9, Human neuropeptide Y (NPY-Y1) (Homo sapiens, UniProt P25929); assay: Radioligand binding, human neuropeptide Y NPY-Y1 membranes, FlashPlate, [125I]-PYY; conditions: compound at 10 μM; [125I]-PYY, FlashPlate
T9 construct: purchased Perkin Elmer Biosignal
T9 sequence (P25929 1-384): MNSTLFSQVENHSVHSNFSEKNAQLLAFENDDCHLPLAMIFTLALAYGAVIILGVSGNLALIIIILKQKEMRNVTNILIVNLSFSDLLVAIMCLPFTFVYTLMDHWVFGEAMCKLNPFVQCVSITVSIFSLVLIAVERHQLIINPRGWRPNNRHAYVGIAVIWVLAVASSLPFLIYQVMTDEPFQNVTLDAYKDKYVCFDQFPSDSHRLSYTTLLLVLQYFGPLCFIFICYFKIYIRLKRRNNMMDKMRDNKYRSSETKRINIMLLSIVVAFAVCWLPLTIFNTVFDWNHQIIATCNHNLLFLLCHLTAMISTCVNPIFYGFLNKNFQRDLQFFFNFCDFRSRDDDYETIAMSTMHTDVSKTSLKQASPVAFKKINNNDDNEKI
Method in brief: as §1

[10] = biological target: T10, Human opioid (ORL1) (Homo sapiens, UniProt P41146); assay: Radioligand binding, human opioid ORL1 membranes, FlashPlate, [125I]-Nociceptin; conditions: compound at 10 μM; [125I]-Nociceptin, FlashPlate
T10 construct: purchased Perkin Elmer Biosignal
Method in brief: as §1

[11] = biological target: T11, Mouse urotensin (mUR2) (Mus musculus, UniProt Q8VIH9); assay: Radioligand binding, mouse urotensin mUR2 membranes, FlashPlate, [125I]-Urotensin II; conditions: compound at 10 μM; [125I]-Urotensin II, FlashPlate
T11 construct: purchased Perkin Elmer Biosignal
T11 sequence (Q8VIH9 1-385): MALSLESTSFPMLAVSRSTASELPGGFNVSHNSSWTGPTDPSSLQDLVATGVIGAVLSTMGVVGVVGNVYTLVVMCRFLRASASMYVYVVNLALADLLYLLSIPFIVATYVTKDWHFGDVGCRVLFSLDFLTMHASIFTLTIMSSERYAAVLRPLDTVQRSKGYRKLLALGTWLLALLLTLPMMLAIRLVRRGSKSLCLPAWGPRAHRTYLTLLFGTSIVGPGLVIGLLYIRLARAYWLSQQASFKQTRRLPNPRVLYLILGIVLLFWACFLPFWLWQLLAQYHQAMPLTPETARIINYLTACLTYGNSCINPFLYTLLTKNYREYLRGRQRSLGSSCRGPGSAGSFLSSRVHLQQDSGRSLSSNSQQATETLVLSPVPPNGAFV
Method in brief: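 Cloned mouse urotensin (mUR2) receptor membranes from Perkin Elmer Biosignal were immobilized in FlashPlate microplates using a proprietary coating. Each well got 19.5 μl buffer, then 0.5 μl of DMSO, reference ligand, or compound. Adding 5 μl of [125I]-Urotensin II, diluted to 5× final concentration in binding buffer, started binding. Plates were sealed with TopSeal-A and incubated 1 hour at room temperature in the dark. Wells were counted for 30 seconds each on a TopCount after a 60-second delay, and percentage inhibition was calculated.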

T2 sequence (P41145 whole entry): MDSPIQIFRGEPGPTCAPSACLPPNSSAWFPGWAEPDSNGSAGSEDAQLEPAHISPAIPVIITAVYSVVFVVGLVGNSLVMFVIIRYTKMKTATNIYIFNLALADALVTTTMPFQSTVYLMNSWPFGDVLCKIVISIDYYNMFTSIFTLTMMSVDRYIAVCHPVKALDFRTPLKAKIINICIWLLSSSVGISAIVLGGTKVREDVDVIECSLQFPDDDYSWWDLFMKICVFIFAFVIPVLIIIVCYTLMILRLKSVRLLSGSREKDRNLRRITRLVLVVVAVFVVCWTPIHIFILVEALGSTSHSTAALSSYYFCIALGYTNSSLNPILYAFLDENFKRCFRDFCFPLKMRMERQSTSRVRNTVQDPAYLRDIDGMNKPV
T5 sequence (P33032 whole entry): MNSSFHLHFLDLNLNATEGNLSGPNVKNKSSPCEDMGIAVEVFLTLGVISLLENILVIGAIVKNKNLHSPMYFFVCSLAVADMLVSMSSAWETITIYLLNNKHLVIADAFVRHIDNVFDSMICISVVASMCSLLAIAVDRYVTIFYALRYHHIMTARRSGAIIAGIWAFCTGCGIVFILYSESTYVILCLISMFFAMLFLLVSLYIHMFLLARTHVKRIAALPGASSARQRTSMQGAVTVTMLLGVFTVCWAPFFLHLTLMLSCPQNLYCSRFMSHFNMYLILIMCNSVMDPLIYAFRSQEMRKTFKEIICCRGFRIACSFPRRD
T6 sequence (Q99705 whole entry): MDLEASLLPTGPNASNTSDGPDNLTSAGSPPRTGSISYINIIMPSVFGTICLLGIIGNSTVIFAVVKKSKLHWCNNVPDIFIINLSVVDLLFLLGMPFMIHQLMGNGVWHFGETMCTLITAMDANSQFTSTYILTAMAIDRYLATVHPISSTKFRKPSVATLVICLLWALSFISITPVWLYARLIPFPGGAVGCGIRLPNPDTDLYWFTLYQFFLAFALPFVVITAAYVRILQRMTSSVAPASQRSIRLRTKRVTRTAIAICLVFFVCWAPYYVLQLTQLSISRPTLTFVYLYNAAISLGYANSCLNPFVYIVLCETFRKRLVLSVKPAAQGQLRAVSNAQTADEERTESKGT
T4 sequence (P32245 whole entry): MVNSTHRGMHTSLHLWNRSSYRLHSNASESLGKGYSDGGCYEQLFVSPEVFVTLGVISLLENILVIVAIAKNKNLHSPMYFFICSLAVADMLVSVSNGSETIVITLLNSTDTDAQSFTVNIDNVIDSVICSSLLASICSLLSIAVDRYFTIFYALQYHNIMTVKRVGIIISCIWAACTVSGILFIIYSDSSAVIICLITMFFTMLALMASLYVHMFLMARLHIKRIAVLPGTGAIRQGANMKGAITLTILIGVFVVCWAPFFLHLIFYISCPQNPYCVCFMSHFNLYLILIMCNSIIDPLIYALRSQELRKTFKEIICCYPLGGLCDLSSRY
T7 sequence (P35372 whole entry): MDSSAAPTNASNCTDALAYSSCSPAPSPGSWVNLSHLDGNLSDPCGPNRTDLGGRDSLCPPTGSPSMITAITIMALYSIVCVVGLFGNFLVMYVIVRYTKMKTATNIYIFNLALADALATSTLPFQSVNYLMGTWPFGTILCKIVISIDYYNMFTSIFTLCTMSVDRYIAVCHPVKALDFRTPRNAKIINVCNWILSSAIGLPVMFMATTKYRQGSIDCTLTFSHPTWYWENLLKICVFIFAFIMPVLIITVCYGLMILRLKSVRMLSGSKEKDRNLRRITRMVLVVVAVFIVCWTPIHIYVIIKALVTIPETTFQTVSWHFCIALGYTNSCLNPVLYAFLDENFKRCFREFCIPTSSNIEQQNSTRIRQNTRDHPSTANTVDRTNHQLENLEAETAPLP
T1 sequence (P41143 whole entry): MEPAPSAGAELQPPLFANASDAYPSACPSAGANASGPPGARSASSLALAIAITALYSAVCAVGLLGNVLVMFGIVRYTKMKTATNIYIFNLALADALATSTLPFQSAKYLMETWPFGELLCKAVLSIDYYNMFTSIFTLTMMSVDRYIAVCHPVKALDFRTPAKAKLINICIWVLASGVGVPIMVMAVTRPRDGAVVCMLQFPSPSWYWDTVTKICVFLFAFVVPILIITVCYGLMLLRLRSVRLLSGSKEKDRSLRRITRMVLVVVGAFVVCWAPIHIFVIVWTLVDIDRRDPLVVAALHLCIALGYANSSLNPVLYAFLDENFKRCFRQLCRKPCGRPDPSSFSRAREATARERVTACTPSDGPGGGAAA
T10 sequence (P41146 whole entry): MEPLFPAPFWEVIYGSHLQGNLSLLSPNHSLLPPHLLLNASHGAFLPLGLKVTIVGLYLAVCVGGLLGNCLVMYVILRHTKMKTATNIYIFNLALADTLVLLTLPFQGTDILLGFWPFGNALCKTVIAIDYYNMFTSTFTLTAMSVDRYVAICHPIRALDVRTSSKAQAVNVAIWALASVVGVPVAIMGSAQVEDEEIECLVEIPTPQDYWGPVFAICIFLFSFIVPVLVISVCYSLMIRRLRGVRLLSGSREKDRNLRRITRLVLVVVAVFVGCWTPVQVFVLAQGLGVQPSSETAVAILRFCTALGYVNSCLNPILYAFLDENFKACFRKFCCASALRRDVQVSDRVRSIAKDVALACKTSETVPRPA
T8 sequence (P25103 whole entry): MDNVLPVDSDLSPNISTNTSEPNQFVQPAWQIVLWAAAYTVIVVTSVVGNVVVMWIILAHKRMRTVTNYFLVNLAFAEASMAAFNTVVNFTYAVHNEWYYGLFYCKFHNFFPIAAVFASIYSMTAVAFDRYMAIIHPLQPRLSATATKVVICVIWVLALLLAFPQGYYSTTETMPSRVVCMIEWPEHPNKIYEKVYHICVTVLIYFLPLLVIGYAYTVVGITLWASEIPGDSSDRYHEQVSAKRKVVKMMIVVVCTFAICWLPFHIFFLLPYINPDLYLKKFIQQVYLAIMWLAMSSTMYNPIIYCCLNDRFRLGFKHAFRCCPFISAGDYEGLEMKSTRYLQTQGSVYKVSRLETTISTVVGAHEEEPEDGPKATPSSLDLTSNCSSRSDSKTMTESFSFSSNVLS
T3 sequence (P41968 whole entry): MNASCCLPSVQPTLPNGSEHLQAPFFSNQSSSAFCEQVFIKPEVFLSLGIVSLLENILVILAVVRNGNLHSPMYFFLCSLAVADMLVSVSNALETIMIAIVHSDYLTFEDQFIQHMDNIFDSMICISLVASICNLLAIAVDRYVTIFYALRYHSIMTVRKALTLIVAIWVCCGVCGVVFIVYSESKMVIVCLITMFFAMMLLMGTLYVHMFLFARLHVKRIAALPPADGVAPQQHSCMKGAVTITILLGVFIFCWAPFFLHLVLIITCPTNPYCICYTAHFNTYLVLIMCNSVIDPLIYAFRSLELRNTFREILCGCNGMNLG

SMILES	A1: inhibition of radioligand binding [1]	A2: inhibition of radioligand binding [2]	A3: inhibition of radioligand binding [3]	A4: inhibition of radioligand binding [4]	A5: inhibition of radioligand binding [5]	A6: inhibition of radioligand binding [6]	A7: inhibition of radioligand binding [7]	A8: inhibition of radioligand binding [8]	A9: inhibition of radioligand binding [9]	A10: inhibition of radioligand binding [10]	A11: inhibition of radioligand binding [11]
COCC1OC(OCc2ccc(Cl)cc2)C(NC(=O)CCNC(=N)N)C(OCc2ccc(Cl)cc2)C1O (stereo not drawn) [compound 202]	− (“−” indicates less than 50% inhibition at 10 μM)	− (“−” indicates less than 50% inhibition at 10 μM)	+ (“+” indicates greater than 50% inhibition at 10 μM)	+ (“+” indicates greater than 50% inhibition at 10 μM)	+ (“+” indicates greater than 50% inhibition at 10 μM)	+ (“+” indicates greater than 50% inhibition at 10 μM)	− (“−” indicates less than 50% inhibition at 10 μM)	+ (“+” indicates greater than 50% inhibition at 10 μM)	− (“−” indicates less than 50% inhibition at 10 μM)	− (“−” indicates less than 50% inhibition at 10 μM)	− (“−” indicates less than 50% inhibition at 10 μM)
COCC1OC(OCc2ccc(Cl)cc2)C(NC(=O)CCCN)C(OCc2ccc(Cl)cc2)C1O (stereo not drawn) [compound 203]	− (“−” indicates less than 50% inhibition at 10 μM)	− (“−” indicates less than 50% inhibition at 10 μM)	− (“−” indicates less than 50% inhibition at 10 μM)	− (“−” indicates less than 50% inhibition at 10 μM)	+ (“+” indicates greater than 50% inhibition at 10 μM)	− (“−” indicates less than 50% inhibition at 10 μM)	− (“−” indicates less than 50% inhibition at 10 μM)	+ (“+” indicates greater than 50% inhibition at 10 μM)	− (“−” indicates less than 50% inhibition at 10 μM)	− (“−” indicates less than 50% inhibition at 10 μM)	− (“−” indicates less than 50% inhibition at 10 μM)
COCC1OC(OCc2ccc(Cl)cc2)C(NC(=O)CCCNC(=N)N)C(OCc2ccc(Cl)cc2)C1O (stereo not drawn) [compound 204]	− (“−” indicates less than 50% inhibition at 10 μM)	− (“−” indicates less than 50% inhibition at 10 μM)	+ (“+” indicates greater than 50% inhibition at 10 μM)	+ (“+” indicates greater than 50% inhibition at 10 μM)	+ (“+” indicates greater than 50% inhibition at 10 μM)	+ (“+” indicates greater than 50% inhibition at 10 μM)	− (“−” indicates less than 50% inhibition at 10 μM)	+ (“+” indicates greater than 50% inhibition at 10 μM)	− (“−” indicates less than 50% inhibition at 10 μM)	− (“−” indicates less than 50% inhibition at 10 μM)	− (“−” indicates less than 50% inhibition at 10 μM)
COCC1OC(OCc2ccc(Cl)cc2)C(NC(=O)CN)C(OCc2ccc(-c3ccccc3)cc2)C1O (stereo not drawn) [compound 205]	− (“−” indicates less than 50% inhibition at 10 μM)	− (“−” indicates less than 50% inhibition at 10 μM)	− (“−” indicates less than 50% inhibition at 10 μM)	+ (“+” indicates greater than 50% inhibition at 10 μM)	+ (“+” indicates greater than 50% inhibition at 10 μM)	− (“−” indicates less than 50% inhibition at 10 μM)	− (“−” indicates less than 50% inhibition at 10 μM)	+ (“+” indicates greater than 50% inhibition at 10 μM)	− (“−” indicates less than 50% inhibition at 10 μM)	− (“−” indicates less than 50% inhibition at 10 μM)	− (“−” indicates less than 50% inhibition at 10 μM)
COCC1OC(OCc2ccc(Cl)cc2)C(NC(=O)CCNC(=N)N)C(OCc2ccc(-c3ccccc3)cc2)C1O (stereo not drawn) [compound 206]	− (“−” indicates less than 50% inhibition at 10 μM)	− (“−” indicates less than 50% inhibition at 10 μM)	− (“−” indicates less than 50% inhibition at 10 μM)	+ (“+” indicates greater than 50% inhibition at 10 μM)	+ (“+” indicates greater than 50% inhibition at 10 μM)	+ (“+” indicates greater than 50% inhibition at 10 μM)	− (“−” indicates less than 50% inhibition at 10 μM)	+ (“+” indicates greater than 50% inhibition at 10 μM)	− (“−” indicates less than 50% inhibition at 10 μM)	− (“−” indicates less than 50% inhibition at 10 μM)	− (“−” indicates less than 50% inhibition at 10 μM)
COCC1OC(OCc2ccc(Cl)cc2)C(NC(=O)CCCN)C(OCc2ccc(-c3ccccc3)cc2)C1O (stereo not drawn) [compound 207]	− (“−” indicates less than 50% inhibition at 10 μM)	− (“−” indicates less than 50% inhibition at 10 μM)	+ (“+” indicates greater than 50% inhibition at 10 μM)	− (“−” indicates less than 50% inhibition at 10 μM)	+ (“+” indicates greater than 50% inhibition at 10 μM)	− (“−” indicates less than 50% inhibition at 10 μM)	− (“−” indicates less than 50% inhibition at 10 μM)	+ (“+” indicates greater than 50% inhibition at 10 μM)	− (“−” indicates less than 50% inhibition at 10 μM)	− (“−” indicates less than 50% inhibition at 10 μM)	− (“−” indicates less than 50% inhibition at 10 μM)
